{
  "source": "patent US11530204B2",
  "about": "“Biocatalytic synthesis of cryptophycin anticancer agents” (priority 2019, dated 2022)",
  "key": {"[1]": {"test_system": "HCT-116 human colorectal cancer cell line", "assay": "IC50 in HCT-116 human colorectal cancer cell line", "format": "cell-based", "conditions": "for IC50: Homo sapiens", "method": "Each of the cryptophycin analogs was assessed using a zone assay as a relative comparison of potency over a variety of cell lines (see Table 1), and the IC50 for each analog was determined in the HCT-116 human colorectal cancer cell line."}, "[2]": {"test_system": "platinum-resistant ovarian cancer", "conditions": "cited from earlier work"}},
  "data": [
    {"smiles": "COc1ccc(C[C@H]2NC(=O)/C=C/C[C@@H]([C@H](C)/C=C/c3ccncc3)OC(=O)[C@H](CC(C)C)OC(=O)[C@H](C)CNC2=O)cc1Cl", "note": "[4 pyridyl, (3S,6R,10R,16S,E)-10-(3-chloro-4-methoxybenzyl)-3-isobutyl-6-methyl-16-((R,E)-4-(pyridin-4-yl)but-3-en-2-yl)-1,4-dioxa-8,11-diazacyclohexadec-13-ene-2,5,9,12-tetraone]", "values": [
      {"measurement": "IC50", "setting": "[1]", "value": 0.51, "unit": "nM"}
    ]},
    {"smiles": "COc1ccc(C[C@H]2NC(=O)/C=C/C[C@@H]([C@H](C)/C=C/c3ccccn3)OC(=O)[C@H](CC(C)C)OC(=O)[C@H](C)CNC2=O)cc1Cl", "note": "[2 pyridyl, (3S,6R,10R,16S,E)-10-(3-chloro-4-methoxybenzyl)-3-isobutyl-6-methyl-16-((R,E)-4-(pyridin-2-yl)but-3-en-2-yl)-1,4-dioxa-8,11-diazacyclohexadec-13-ene-2,5,9,12-tetraone]", "values": [
      {"measurement": "IC50", "setting": "[1]", "value": 102, "unit": "nM"}
    ]},
    {"smiles": "COc1ccc(C[C@H]2NC(=O)/C=C/C[C@@H]([C@H](C)[C@H]3O[C@@H]3c3ccccc3)OC(=O)[C@H](CC(C)C)OC(=O)C(C)(C)CNC2=O)cc1Cl", "note": "[cryptophycin 52]", "values": [
      {"measurement": "dose-limiting toxicity", "setting": "[2]; clinical trials", "value": "dose-limiting peripheral neuropathy"},
      {"measurement": "clinical outcome", "setting": "[2]; platinum-resistant ovarian cancer", "value": "significant disease stabilization"}
    ]},
    {"smiles": "COc1ccc(C[C@H]2NC(=O)/C=C/C[C@@H]([C@H](C)/C=C/c3cnn(C)c3)OC(=O)[C@H](CC(C)C)OC(=O)[C@H](C)CNC2=O)cc1Cl", "note": "[4 methyl pyrazole, (3S,6R,10R,16S,E)-10-(3-chloro-4-methoxybenzyl)-3-isobutyl-6-methyl-16-((R,E)-4-(1-methyl-1H-pyrazol-4-yl)but-3-en-2-yl)-1,4-dioxa-8,11-diazacyclohexadec-13-ene-2,5,9,12-tetraone]", "values": [
      {"measurement": "potency in words", "setting": "[1]", "value": "low pico-molar"}
    ]},
    {"smiles": "COc1ccc(C[C@H]2NC(=O)/C=C/C[C@@H]([C@H](C)/C=C/c3cccnc3)OC(=O)[C@H](CC(C)C)OC(=O)[C@H](C)CNC2=O)cc1Cl", "note": "[3 pyridyl, (3S,6R,10R,16S,E)-10-(3-chloro-4-methoxybenzyl)-3-isobutyl-6-methyl-16-((R,E)-4-(pyridin-3-yl)but-3-en-2-yl)-1,4-dioxa-8,11-diazacyclohexadec-13-ene-2,5,9,12-tetraone]", "values": [
      {"measurement": "IC50", "setting": "[1]", "value": 0.86, "unit": "nM"}
    ]}
  ]
}
